Assays:
Assay type in all cases: in vivo
[1] = tested on: barnyardgrass (Echinochloa crus-galli, ECHCG); experiment: Postemergence herbicidal activity of mixtures under field conditions in wet-seeded rice, ECHCG
Experimental: (§1) Evaluation of Postemergence Herbicidal Activity of Mixtures under Field Conditions Methodology
(§2) Field trials were conducted in rice using standard herbicide small plot research methodology. Plot size was 2 square meters (m^2) using 1.6 meter (m) diameter rings placed into the rice paddy soil with capability for flooding to maintain good rice cultural practices and rice growing conditions. There were 3 replicates per treatment. Rice was Japonica type that was sown as wet-seeded rice (pre-germinated) into the saturated soil in the rings as per normal cultural practices. The rice crop was grown using normal cultural practices for fertilization, seeding, watering, flooding and maintenance to ensure good growth of the crop and the weeds under seeded rice conditions in Taiwan. Ring plot water conditions were maintained under saturated soil conditions after planting. Just prior to treatment application, any remaining plot water was drained to maintain saturated soil in ring plot. Treatments were applied by backpack using compressed air at 30 pounds per square inch (psi) using Flat Fan nozzles at a spray volume of 450 Liters/hectare (L/ha). Penoxsulam was applied as the Fencer® 25OD formulation. Glufosinate-ammonium was applied as the Basta® 135 SL formulation.
(§3) All treatments in the field trials were applied by spraying the treatments on the rice and weeds and evaluated at 7, 14, or 28 days after application (DAA). Commercially available products of penoxsulam (FENCER 25OD) and glufosinate-ammonium (BASTA 135 SL) were mixed in water and sprayed onto the rice and weeds with the appropriate formulated product amounts to treat 2 m^2 to achieve the desired application rates based on unit area of application (hectare).
(§4) The treated and control plots were rated blind at various intervals after application, with the last evaluation taken 28 days after application. Ratings were based on percent (%) visual weed control, where 0 corresponds to no control and 100 corresponds to complete control.
(§5) Colby's equation was used to determine the herbicidal effects expected from the mixtures (Colby, S. R. Calculation of the synergistic and antagonistic response of herbicide combinations. Weeds 1967 15, 20-22). Results are shown where P<0.05 according to Colby's method of analysis.
(§6) The following equation was used to calculate the expected activity of mixtures containing two active ingredients, A and B: Expected=A+B−(A×B/100)
(§7) A=observed efficacy of active ingredient A at the same concentration as used in the mixture;
(§8) B=observed efficacy of active ingredient B at the same concentration as used in the mixture.

[2] = tested on: smallflower umbrella sedge (Cyperus difformis, CYPDI); experiment: Postemergence herbicidal activity of mixtures under field conditions in wet-seeded rice, CYPDI; settings: 14 DAA
Experimental: as §1, §2, §3, §4, §5, §6, §7, §8

[3] = tested on: Japanese bulrush (Schoenoplectus juncoides, SCPJU); experiment: Postemergence herbicidal activity of mixtures under field conditions in wet-seeded rice, SCPJU
Experimental: as §1, §2, §3, §4, §5, §6, §7, §8

[4] = tested on: monochoria (Monochoria vaginalis, MOOVA); experiment: Postemergence herbicidal activity of mixtures under field conditions in wet-seeded rice, MOOVA; settings: 14 DAA
Experimental: as §1, §2, §3
The treated and control plots were rated blind at various intervals after application, with the last evaluation taken 28 days after application. Ratings were based on percent (%) visual weed control, where 0 corresponds to no control and 100 corresponds to complete control. […]

[5] = 28 DAA, glufosinate-ammonium 35 grams ai/ha
[6] = 28 DAA, glufosinate-ammonium 70 grams ai/ha
[7] = 28 DAA, glufosinate-ammonium 140 grams ai/ha
[8] = glufosinate-ammonium 70 grams ai/ha
[9] = 28 DAA, penoxsulam 5 grams ai/ha

Compound: 2-amino-4-(hydroxymethylphosphinyl)butanoic acid [Glufosinate-ammonium]
- ECHCG (% Control) Obs ([1]; 14 DAA, glufosinate-ammonium 35 grams ai/ha): 0%
- ECHCG (% Control) Obs ([1]; 14 DAA, glufosinate-ammonium 70 grams ai/ha): 0%
- ECHCG (% Control) Obs ([1]; 14 DAA, glufosinate-ammonium 140 grams ai/ha): 27%
- ECHCG (% Control) Obs [1, 5]: 0%
- ECHCG (% Control) Obs [1, 6]: 0%
- ECHCG (% Control) Obs [1, 7]: 0%
- ECHCG (% Control) Obs ([1]; 28 DAA, glufosinate-ammonium 280 grams ai/ha): 13%
- CYPDI (% Control) Obs ([2]; glufosinate-ammonium 35 grams ai/ha): 0%
- CYPDI (% Control) Obs [2, 8]: 0%
- CYPDI (% Control) Obs ([2]; glufosinate-ammonium 140 grams ai/ha): 0%
- SCPJU (% Control) Obs ([3]; 7 DAA, glufosinate-ammonium 18 grams ai/ha): 0%
- SCPJU (% Control) Obs ([3]; 7 DAA, glufosinate-ammonium 35 grams ai/ha): 0%
- SCPJU (% Control) Obs ([3]; 7 DAA, glufosinate-ammonium 70 grams ai/ha): 0%
- SCPJU (% Control) Obs ([3]; 7 DAA, glufosinate-ammonium 140 grams ai/ha): 0%
- SCPJU (% Control) Obs ([3]; 28 DAA, glufosinate-ammonium 18 grams ai/ha): 0%
- SCPJU (% Control) Obs [3, 5]: 0%
- SCPJU (% Control) Obs [3, 6]: 0%
- SCPJU (% Control) Obs [3, 7]: 0%
- MOOVA (% Control) Obs ([4]; glufosinate-ammonium 18 grams ai/ha): 0%
- MOOVA (% Control) Obs [4, 8]: 0%

Compound: COc1cnc(OC)n2nc(NS(=O)(=O)c3c(OCC(F)F)cccc3C(F)(F)F)nc12 [Penoxsulam, 2-(2,2-difluoroethoxy)-N-(5,8-dimethoxy-[1,2,4]triazolo[1,5-c]pyrimidin-2-yl)-6-(trifluoromethyl)benzenesulfonamide]
- ECHCG (% Control) Obs ([1]; 14 DAA, penoxsulam 5 grams ai/ha): 53%
- ECHCG (% Control) Obs ([1]; 14 DAA, penoxsulam 10 grams ai/ha): 62%
- ECHCG (% Control) Obs [1, 9]: 30%
- ECHCG (% Control) Obs ([1]; 28 DAA, penoxsulam 10 grams ai/ha): 42%
- ECHCG (% Control) Obs ([1]; 28 DAA, penoxsulam 20 grams ai/ha): 87%
- CYPDI (% Control) Obs ([2]; penoxsulam 5 grams ai/ha): 73%
- SCPJU (% Control) Obs ([3]; 7 DAA, penoxsulam 5 grams ai/ha): 40%
- SCPJU (% Control) Obs ([3]; 7 DAA, penoxsulam 20 grams ai/ha): 92%
- SCPJU (% Control) Obs [3, 9]: 0%
- MOOVA (% Control) Obs ([4]; penoxsulam 5 grams ai/ha): 37%
